The record followed here is patent US20250296971A1, “GASTRIC INHIBITORY PEPTIDE RECEPTOR LIGANDS” (priority 2021, published 2025).

*1 amine or outer side, *2 acyl side, *3 side chain or, on linkers, in order; H or OH if unused. Where a SMILES comes first, the peptide text is derived from it. Bridges are numbered along the chain shown (N, C = ends). [ ]: non-standard residue; d: D form. Trp(5-Cl) = N[C@@H](Cc1c[nH]c2ccc(Cl)cc12)C(=O)O; Trp(5-OH) = N[C@@H](Cc1c[nH]c2ccc(O)cc12)C(=O)O; Pyridine(2,6-diCH2) = c1cc(C[*:1])nc(C[*:2])c1; Trp(7-F) = N[C@@H](Cc1c[nH]c2c(F)cccc12)C(=O)O; Hyp = O=C(O)[C@@H]1C[C@@H](O)CN1; Thz = O=C(O)[C@@H]1CSCN1; Thp = NC1(C(=O)O)CCOCC1

In this experiment the target is T1, GIPR (CHO-K1-hGIPR cells) (Homo sapiens, UniProt P48546).
T1 construct: host or cells: CHO-K1
T1 sequence (P48546 22-466): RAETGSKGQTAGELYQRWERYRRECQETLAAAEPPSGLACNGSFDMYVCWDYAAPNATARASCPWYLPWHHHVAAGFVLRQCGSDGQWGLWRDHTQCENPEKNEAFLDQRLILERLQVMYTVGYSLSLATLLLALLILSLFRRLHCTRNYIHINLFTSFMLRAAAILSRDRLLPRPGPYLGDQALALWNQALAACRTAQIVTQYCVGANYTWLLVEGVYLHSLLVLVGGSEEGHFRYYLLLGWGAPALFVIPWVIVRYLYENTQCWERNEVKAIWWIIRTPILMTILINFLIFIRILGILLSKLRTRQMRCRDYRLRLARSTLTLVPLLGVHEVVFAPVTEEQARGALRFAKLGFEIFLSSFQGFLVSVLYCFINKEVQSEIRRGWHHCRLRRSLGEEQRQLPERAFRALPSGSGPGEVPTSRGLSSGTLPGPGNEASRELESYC
Briefly: FACS binding assay. As to conditions: competition with 20 nM GIP-057, 4° C., 1 hour, read-out: pIC50 Category (converted). The method, boiled down: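 CHO-K1 cells stably expressing human GIPR were detached with Accutase, suspended at 500.000 cells per mL in PBS with 1% FCS, and washed ice-cold. Bound peptide was detected with 1 μg/mL APC-streptavidin for 30 min on ice.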

Consider `CC[C@H](C)[C@@H]1NC(=O)[C@H](CC(C)C)NC(=O)C2(CCOCC2)NC(=O)[C@@H](NC(=O)[C@@H](NC(=O)[C@H](CCC(=O)O)NC(=O)[C@@H]2C[C@@H](O)CN2C(=O)[C@H](Cc2c[nH]c3ccc(Cl)cc23)NC(=O)[C@H](Cc2c[nH]c3ccccc23)NC(=O)[C@H](CC(=O)O)NC(C)=O)[C@@H](C)CC)CSCc2cccc(n2)CSC[C@@H](C(N)=O)NC1=O` [GIP-218, Ac-Asp-Trp-5Clw-Hyp-Glu-Ile-[Cys(2Lut)-Thp-Leu-Ile-Cys]-NH2] (Ac-DW[Trp(5-Cl)][Hyp]EIC[Thp]LIC-NH2; linker 7-11 via Pyridine(2,6-diCH2)), for which the IC50 is less than 10 nM.
The figure for `CC[C@H](C)[C@@H]1NC(=O)[C@H](CC(C)C)NC(=O)C2(CCOCC2)NC(=O)[C@@H](NC(=O)[C@@H](NC(=O)[C@H](CCC(=O)O)NC(=O)[C@@H]2C[C@@H](O)CN2C(=O)[C@H](Cc2c[nH]c3ccc(Cl)cc23)NC(=O)[C@H](Cc2c[nH]c3ccccc23)NC(=O)[C@H](CC(=O)O)NC(C)=O)C(C)C)CSCc2cccc(n2)CSC[C@@H](C(N)=O)NC1=O` [GIP-219, Ac-Asp-Trp-5Clw-Hyp-Glu-Val-[Cys(2Lut)-Thp-Leu-Ile-Cys]-NH2] (Ac-DW[Trp(5-Cl)][Hyp]EVC[Thp]LIC-NH2; linker 7-11 via Pyridine(2,6-diCH2)) is less than 10 nM; for `CC[C@H](C)[C@@H]1NC(=O)[C@H](CC(C)C)NC(=O)C2(CCOCC2)NC(=O)[C@@H](NC(=O)[C@@H](CC(C)C)NC(=O)[C@H](CCC(=O)O)NC(=O)[C@@H]2C[C@@H](O)CN2C(=O)[C@H](Cc2c[nH]c3ccc(Cl)cc23)NC(=O)[C@H](Cc2c[nH]c3ccc(O)cc23)NC(=O)[C@H](CC(=O)O)NC(C)=O)CSCc2cccc(n2)CSC[C@@H](C(N)=O)NC1=O` [GIP-220, Ac-Asp-Hyw-5Clw-Hyp-Glu-leu-[Cys(2Lut)-Thp-Leu-Ile-Cys]-NH2] (Ac-D[Trp(5-OH)][Trp(5-Cl)][Hyp]E[dL]C[Thp]LIC-NH2; linker 7-11 via Pyridine(2,6-diCH2)) it is less than 10 nM.
The figure for `CC[C@H](C)[C@@H]1NC(=O)[C@H](CC(C)C)NC(=O)C2(CCOCC2)NC(=O)[C@@H](NC(=O)[C@@H](CC(C)C)NC(=O)[C@H](CCC(=O)O)NC(=O)[C@@H]2C[C@@H](O)CN2C(=O)[C@H](Cc2c[nH]c3ccc(Cl)cc23)NC(=O)[C@H](Cc2c[nH]c3c(F)cccc23)NC(=O)[C@H](CC(=O)O)NC(C)=O)CSCc2cccc(n2)CSC[C@@H](C(N)=O)NC1=O` [GIP-221, Ac-Asp-7Fw-5Clw-Hyp-Glu-leu-[Cys(2Lut)-Thp-Leu-Ile-Cys]-NH2] (Ac-D[Trp(7-F)][Trp(5-Cl)][Hyp]E[dL]C[Thp]LIC-NH2; linker 7-11 via Pyridine(2,6-diCH2)) is less than 10 nM.
The figure for `CC[C@H](C)[C@@H]1NC(=O)[C@H](CC(C)C)NC(=O)C2(CCOCC2)NC(=O)[C@@H](NC(=O)[C@@H](CC(C)C)NC(=O)[C@H](CCC(=O)O)NC(=O)[C@@H]2CSCN2C(=O)[C@H](Cc2c[nH]c3ccc(Cl)cc23)NC(=O)[C@H](Cc2c[nH]c3ccccc23)NC(=O)[C@H](CC(=O)O)NC(C)=O)CSCc2cccc(n2)CSC[C@@H](C(N)=O)NC1=O` [GIP-222, Ac-Asp-Trp-5Clw-Eaz-Glu-leu-[Cys(2Lut)-Thp-Leu-Ile-Cys]-NH2] (Ac-DW[Trp(5-Cl)][Thz]E[dL]C[Thp]LIC-NH2; linker 7-11 via Pyridine(2,6-diCH2)) is less than 10 nM; for `CC[C@H](C)[C@@H]1NC(=O)[C@H](CC(C)C)NC(=O)C2(CCOCC2)NC(=O)[C@@H](NC(=O)[C@H](CC(C)C)NC(=O)[C@@H](CCC(=O)O)NC(=O)[C@@H]2C[C@@H](O)CN2C(=O)[C@H](Cc2c[nH]c3ccc(Cl)cc23)NC(=O)[C@H](Cc2c[nH]c3ccccc23)NC(=O)[C@H](CC(=O)O)NC(C)=O)CSCc2cccc(n2)CSC[C@@H](C(N)=O)NC1=O` [GIP-223, Ac-Asp-Trp-5Clw-Eaz-Glu-leu-[Cys(2Lut)-Thp-Leu-Ile-Cys]-NH2] (Ac-DW[Trp(5-Cl)][Hyp][dE]LC[Thp]LIC-NH2; linker 7-11 via Pyridine(2,6-diCH2)) it is less than 10 nM.
